# From PubChem BioAssay AID2060886 (Molecular Pharmacology Branch, DTP, NCI, 2025)
# Tested on: 653999-131-R-J2-PDC complex spheroids, growth inhibition
# Assay: Anticancer human tumor 653999-131-R-J2-PDC patient-derived lung adenocarcinoma cell line growth inhibition [RAS]
# Conditions: for IC50: curve of first compound; for viability, T/C: stronger effect = lower value
# Source text: RAS pathway inhibitors in Combinations in Complex Spheroids
# A high-throughput screen of multi-cell type tumor spheroids was designed to identify active combinations of RAS pathway inhibitors and targeted small molecules. Complex spheroids include a stromal component modeled by human endothelial cells (HUVEC) and fibroblasts modeled by human mesenchymal stem cells (MSCs). The concentration ranges selected for each drug and investigational agent were based upon clinically achievable concentrations if the clinical Cmax of the agent was known.
# Compounds. The drugs and investigational agents: abemaciclib (NSC768073), cobimetinib (NSC768068), divarasib (GDC6063, NSC841802), docetaxel (NSC628503), GDC-1971 (RLY-1971, NSC841576), gemcitabine (NSC613327), inavolisib (NSC800729), ipatasertib (NSC767898), KB-0742 (NSC834161), MRTX-1133 (NSC836407), osimertinib (NSC779217), RMC-4630 (NSC839698), RMC-6236 (NSC851965), RMC-6291 (NSC852671), Ro-3306 (NSC812927), sapanisertib (NSC764658), SN-38 (NSC673596), staurosporine (NSC755774), SY5609 (NSC837396), and tovorafenib (DAY101, NSC766906), were obtained from the National Cancer Institute (NCI) Developmental Therapeutics Program Chemical Repository. The FDA-approved anticancer drug set is available from the NCI Developmental Therapeutics Program. […] The stock solutions were prepared in dimethyl sulfoxide (DMSO, Sigma-Aldrich, St. Louis, MO, cat. D2650) at 800-fold the tested concentration and stored at -70 degrees C prior to their use. All drugs and investigational agents were tested over a range starting from a high concentration at or near the clinical Cmax and decreasing in half-log increments. If the clinical Cmax for an agent had not been determined, the highest concentration tested was 10 microM.
# Cell Culture. All cells were maintained in an incubator at 37 degrees C and 5% CO2 with 95% humidity. The PDC lines were cultured according to standard operating procedures established by the NCI PDMR. All PDCs were thawed and cultured in Matrigel-coated flasks prepared with a working solution of 1X Ham's F-12 nutrient mix, without supplementation (Invitrogen, Waltham, MA, cat. 11765054), 100 U/mL penicillin-streptomycin (Invitrogen, cat. 15140122), and 2.5% Matrigel (Corning Inc., Corning, NY, cat. 354248) for the first three passages. The 362531-283-R-J2-PDC and 782815-120-R-J1-PDC lines were cultured in 6C/Colon 1B media, which includes advanced DMEM/F-12 (Thermo Fisher Scientific, cat. 12634028), 10 mM HEPES (Thermo Fisher Scientific, cat. 15630080), 1X GlutaMAX supplement (Thermo Fisher Scientific, cat. 35050061), 0.1 mg/mL primocin (InvivoGen, San Diego, CA, cat. ant-pm-2), 10% defined fetal bovine serum, heat inactivated (HyClone Laboratories Inc., Logan, UT, cat. SH30070.03HI), 50% L-WRN conditioned media (ATCC, cat. CRL-3276), 1.25 mM N-Acetyl-L-cysteine (Sigma-Aldrich, cat. A9165), 10 mM nicotinamide (Sigma-Aldrich, cat. N0636), 1X B-27 supplement (Thermo Fisher Scientific, cat. 17504044), 1X N-2 supplement (Thermo Fisher Scientific, cat. 17502048), 50 ng/mL human EGF (Thermo Fisher Scientific, cat. PHG0311), and 10 microM Y-27632 dihydrochloride (Tocris Bioscience, cat. 1254). The K12877-001-R-J1-PDC line was cultured in 6I media, which includes all 6C/Colon 1B media plus 10 ng/mL human FGF-10 (PeproTech, cat. 100-26), 1 ng/mL human FGF-2 (PeproTech, cat. 100-18B), 1 µM prostaglandin E2 (Tocris Bioscience, cat. 2296), […] hydrocortisone (Sigma-Aldrich, cat. H4001), and […] bovine insulin (Sigma-Aldrich, cat. I6634). The K86415-001-R-J1-PDC line was cultured in 6D media, which includes all 6C/Colon 1B media components minus the L-WRN conditioned media. The 485176-168-R4-J1-PDC was cultured in PANC media, which includes all 6C/Colon 1B media plus 100 ng/mL human FGF-10 (PeproTech, cat. 100-26), 500 nM SB-431542 (Selleckchem, cat. S1067), and 10 nM gastrin (Tocris Bioscience, cat. 3006). […]
# [1] = second compound 0.0316 µM, first compound 0.0316 µM
# [2] = second compound 0.0316 µM, first compound 0.1 µM
# [3] = second compound 0.0316 µM, first compound 0.316 µM
# [4] = second compound 0.0316 µM, first compound 1 µM
# [5] = second compound 0.1 µM, first compound 0.0316 µM
# [6] = second compound 0.1 µM, first compound 0.1 µM
# [7] = second compound 0.1 µM, first compound 0.316 µM
# [8] = second compound 0.1 µM, first compound 1 µM
# [9] = second compound 0.316 µM, first compound 0.0316 µM
# [10] = second compound 0.316 µM, first compound 0.1 µM
# [11] = second compound 0.316 µM, first compound 0.316 µM
# [12] = second compound 0.316 µM, first compound 1 µM
# [13] = second compound 1 µM, first compound 0.0316 µM
# [14] = second compound 1 µM, first compound 0.1 µM
# [15] = second compound 1 µM, first compound 0.316 µM
# [16] = second compound 1 µM, first compound 1 µM
# [17] = second compound 3.16 µM, first compound 0.0316 µM
# [18] = second compound 3.16 µM, first compound 0.1 µM
# [19] = second compound 3.16 µM, first compound 0.316 µM
# [20] = second compound 3.16 µM, first compound 1 µM
# [21] = second compound 10 µM, first compound 0.0316 µM
# [22] = second compound 10 µM, first compound 0.1 µM
# [23] = second compound 10 µM, first compound 0.316 µM
# [24] = second compound 10 µM, first compound 1 µM
# 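Further: spheroids exposed to the agents for seven days before the readout.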
smiles,measurement,setting,value
CC(Nc1ccc2c(c1)OCCn1cc(N3C(=O)OCC3C(F)F)nc1-2)C(N)=O (centres undefined) + C#Cc1c(F)ccc2cc(O)cc(-c3ncc4c(N5CC6CCC(C5)N6)nc(OCC56CCCN5CC(F)C6)nc4c3F)c12,IC50,second compound 0.0316 µM,558 nM
same,IC50,second compound 0.1 µM,273 nM
same,IC50,second compound 0.316 µM,117 nM
same,IC50,second compound 1 µM,< 31.6 nM
same,IC50,second compound 3.16 µM,< 31.6 nM
same,IC50,second compound 10 µM,< 31.6 nM
same,"viability, T/C",[1],86.3%
same,"viability, T/C",[2],70.3%
same,"viability, T/C",[3],53.8%
same,"viability, T/C",[4],44.4%
same,"viability, T/C","second compound 0.0316 µM, first compound 3.16 µM",35.1%
same,"viability, T/C","second compound 0.0316 µM, first compound 10 µM",22.3%
same,"viability, T/C",[5],77.2%
same,"viability, T/C",[6],66.9%
same,"viability, T/C",[7],47%
same,"viability, T/C",[8],32.3%
same,"viability, T/C","second compound 0.1 µM, first compound 3.16 µM",26.1%
same,"viability, T/C","second compound 0.1 µM, first compound 10 µM",22.6%
same,"viability, T/C",[9],63.6%
same,"viability, T/C",[10],51.2%
same,"viability, T/C",[11],39.5%
same,"viability, T/C",[12],25.5%
same,"viability, T/C","second compound 0.316 µM, first compound 3.16 µM",18.9%
same,"viability, T/C","second compound 0.316 µM, first compound 10 µM",13.5%
same,"viability, T/C",[13],39.9%
same,"viability, T/C",[14],35.1%
same,"viability, T/C",[15],28.1%
same,"viability, T/C",[16],23%
same,"viability, T/C","second compound 1 µM, first compound 3.16 µM",19%
same,"viability, T/C","second compound 1 µM, first compound 10 µM",11%
same,"viability, T/C",[17],30.1%
same,"viability, T/C",[18],28.4%
same,"viability, T/C",[19],22.9%
same,"viability, T/C",[20],11.8%
same,"viability, T/C","second compound 3.16 µM, first compound 3.16 µM",13.9%
same,"viability, T/C","second compound 3.16 µM, first compound 10 µM",7.23%
same,"viability, T/C",[21],17.1%
same,"viability, T/C",[22],14.3%
same,"viability, T/C",[23],10.6%
same,"viability, T/C",[24],8.07%
same,"viability, T/C","second compound 10 µM, first compound 3.16 µM",5.81%
same,"viability, T/C","second compound 10 µM, first compound 10 µM",4.16%
O=C(c1ccc(F)c(F)c1Nc1ccc(I)cc1F)N1CC(O)([C@@H]2CCCCN2)C1 + C#Cc1c(F)ccc2cc(O)cc(-c3ncc4c(N5CC6CCC(C5)N6)nc(OCC56CCCN5CC(F)C6)nc4c3F)c12,IC50,second compound 0.0316 µM,92.7 nM
same,IC50,second compound 0.1 µM,54.7 nM
same,IC50,second compound 0.316 µM,106 nM
same,IC50,second compound 1 µM,< 3.16 nM
same,IC50,second compound 3.16 µM,< 3.16 nM
same,IC50,second compound 10 µM,< 3.16 nM
same,"viability, T/C","second compound 0.0316 µM, first compound 0.00316 µM",88.1%
same,"viability, T/C","second compound 0.0316 µM, first compound 0.01 µM",90.7%
same,"viability, T/C",[1],60.7%
same,"viability, T/C",[2],52.7%
same,"viability, T/C",[3],25.6%
same,"viability, T/C",[4],7.56%
same,"viability, T/C","second compound 0.1 µM, first compound 0.00316 µM",70.9%
same,"viability, T/C","second compound 0.1 µM, first compound 0.01 µM",70.6%
same,"viability, T/C",[5],63%
same,"viability, T/C",[6],34.6%
same,"viability, T/C",[7],24%
same,"viability, T/C",[8],8.72%
same,"viability, T/C","second compound 0.316 µM, first compound 0.00316 µM",62.3%
same,"viability, T/C","second compound 0.316 µM, first compound 0.01 µM",60.1%
same,"viability, T/C",[9],66.6%
same,"viability, T/C",[10],49.9%
same,"viability, T/C",[11],23.8%
same,"viability, T/C",[12],8.41%
same,"viability, T/C","second compound 1 µM, first compound 0.00316 µM",50.1%
same,"viability, T/C","second compound 1 µM, first compound 0.01 µM",39.8%
same,"viability, T/C",[13],51.2%
same,"viability, T/C",[14],43.4%
same,"viability, T/C",[15],19.1%
same,"viability, T/C",[16],6.71%
same,"viability, T/C","second compound 3.16 µM, first compound 0.00316 µM",34.5%
same,"viability, T/C","second compound 3.16 µM, first compound 0.01 µM",31.5%
same,"viability, T/C",[17],31.6%
same,"viability, T/C",[18],21.4%
same,"viability, T/C",[19],12.8%
same,"viability, T/C",[20],5.39%
same,"viability, T/C","second compound 10 µM, first compound 0.00316 µM",26%
same,"viability, T/C","second compound 10 µM, first compound 0.01 µM",22.1%
same,"viability, T/C",[21],11.9%
same,"viability, T/C",[22],11.9%
same,"viability, T/C",[23],8.98%
same,"viability, T/C",[24],2.85%
